The target of assay [1] is Serine/threonine-protein kinase B-raf (Homo sapiens) (UniProt P15056). Description: Selectivity interaction (Kinase panel (DSF assay)) EUB0001558a BRAF.
For assay [2], the target named is T1, cGMP-dependent protein kinase 1 (Homo sapiens) (UniProt Q13976).
T1 sequence (whole entry): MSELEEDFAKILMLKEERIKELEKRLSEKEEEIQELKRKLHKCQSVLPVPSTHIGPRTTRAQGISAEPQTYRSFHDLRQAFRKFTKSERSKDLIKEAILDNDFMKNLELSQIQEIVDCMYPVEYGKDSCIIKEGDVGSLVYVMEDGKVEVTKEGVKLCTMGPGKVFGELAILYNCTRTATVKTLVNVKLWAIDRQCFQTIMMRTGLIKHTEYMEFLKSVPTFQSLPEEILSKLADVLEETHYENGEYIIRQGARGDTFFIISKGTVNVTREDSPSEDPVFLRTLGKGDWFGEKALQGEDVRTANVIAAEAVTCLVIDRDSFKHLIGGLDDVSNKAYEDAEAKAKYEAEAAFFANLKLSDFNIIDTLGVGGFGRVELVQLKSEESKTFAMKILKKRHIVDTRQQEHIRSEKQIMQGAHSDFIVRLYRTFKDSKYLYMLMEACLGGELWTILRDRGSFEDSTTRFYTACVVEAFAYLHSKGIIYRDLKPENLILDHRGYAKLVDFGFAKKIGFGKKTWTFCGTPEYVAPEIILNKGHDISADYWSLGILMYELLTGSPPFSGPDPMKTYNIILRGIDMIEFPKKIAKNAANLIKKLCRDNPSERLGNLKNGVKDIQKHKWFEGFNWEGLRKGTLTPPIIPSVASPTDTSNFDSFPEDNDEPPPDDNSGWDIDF
Description: Selectivity interaction (KinaseProfiler screening (Millipore)) EUB0000601a PRKG1. The conditions noted are these: at 3 µM.

Assay [3] concerns Leucine-rich repeat serine/threonine-protein kinase 2 (Homo sapiens), Q5S007 [G2019S]. Description: (§1) Selectivity interaction (KinomeScan (DiscoverX)) EUB0000695a LRRK2. The conditions noted are these: at 100 nM.
For assay [4], the target named is Leucine-rich repeat serine/threonine-protein kinase 2 (Homo sapiens, UniProt Q5S007). The description is as §1. The following applies: at 100 nM.
Assay [5] has as its target Hepatocyte growth factor receptor (Homo sapiens, UniProt P08581). Description: Selectivity interaction (Kinase counterscreening (biochemical assay)) EUB0000604a MET.
The target of assay [6] is Casein kinase II subunit alpha (Homo sapiens, UniProt P68400). Description: Selectivity interaction (Kinase screening (Upstate/Millipore)) EUB0000604a CSNK2A1.
Assay [7] has as its target T2, Dual specificity tyrosine-phosphorylation-regulated kinase 2 (Homo sapiens) (UniProt Q92630).
T2 sequence (whole entry): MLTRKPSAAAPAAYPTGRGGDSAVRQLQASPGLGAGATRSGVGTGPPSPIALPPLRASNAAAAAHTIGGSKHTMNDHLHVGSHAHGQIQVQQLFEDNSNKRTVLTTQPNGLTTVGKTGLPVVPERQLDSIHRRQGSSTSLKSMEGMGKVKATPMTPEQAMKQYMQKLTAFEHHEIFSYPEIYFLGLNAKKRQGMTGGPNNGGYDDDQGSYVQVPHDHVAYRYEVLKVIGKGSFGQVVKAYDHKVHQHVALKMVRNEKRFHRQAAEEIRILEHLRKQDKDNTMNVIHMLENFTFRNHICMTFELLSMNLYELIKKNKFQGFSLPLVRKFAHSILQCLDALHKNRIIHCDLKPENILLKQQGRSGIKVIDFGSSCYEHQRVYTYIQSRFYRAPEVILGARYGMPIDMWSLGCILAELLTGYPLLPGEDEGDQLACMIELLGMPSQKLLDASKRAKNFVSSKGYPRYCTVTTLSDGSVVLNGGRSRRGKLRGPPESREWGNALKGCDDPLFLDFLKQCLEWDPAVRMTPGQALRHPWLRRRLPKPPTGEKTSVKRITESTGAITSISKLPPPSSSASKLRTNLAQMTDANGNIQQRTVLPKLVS
Description: Selectivity interaction (KinomeScan (DiscoverX)) EUB0000666a DYRK2. The conditions noted are these: at 10 µM.

Assay [8] deals with Tyrosine-protein kinase ABL2 (Homo sapiens, UniProt P42684). Description: Selectivity interaction (SelectScreen profiling (Invitrogen)) EUB0000607a ABL2. The following applies: at 2 µM.
In assay [9] the target is T3, Protein kinase C epsilon type (Homo sapiens) (UniProt Q02156).
T3 sequence (whole entry): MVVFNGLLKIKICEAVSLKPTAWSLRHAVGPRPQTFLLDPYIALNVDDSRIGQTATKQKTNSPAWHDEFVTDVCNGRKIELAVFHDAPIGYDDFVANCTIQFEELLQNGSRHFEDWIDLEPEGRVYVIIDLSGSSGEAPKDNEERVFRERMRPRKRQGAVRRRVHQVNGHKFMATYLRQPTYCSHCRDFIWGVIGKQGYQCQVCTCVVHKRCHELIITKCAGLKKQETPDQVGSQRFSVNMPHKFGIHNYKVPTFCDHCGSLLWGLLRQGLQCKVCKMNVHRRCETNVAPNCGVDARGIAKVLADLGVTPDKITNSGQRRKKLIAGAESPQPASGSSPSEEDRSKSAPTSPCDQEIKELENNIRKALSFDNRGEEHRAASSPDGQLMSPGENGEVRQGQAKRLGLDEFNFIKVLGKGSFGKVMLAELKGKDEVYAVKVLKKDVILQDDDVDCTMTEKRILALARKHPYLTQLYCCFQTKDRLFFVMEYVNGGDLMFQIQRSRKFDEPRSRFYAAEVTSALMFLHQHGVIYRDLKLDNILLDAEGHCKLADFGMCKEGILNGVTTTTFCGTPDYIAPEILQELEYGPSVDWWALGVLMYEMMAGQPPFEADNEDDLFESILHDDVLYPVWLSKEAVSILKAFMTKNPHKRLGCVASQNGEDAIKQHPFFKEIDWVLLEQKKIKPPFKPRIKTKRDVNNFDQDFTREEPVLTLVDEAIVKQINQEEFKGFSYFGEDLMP
Description: Selectivity interaction (KinomeScan (DiscoverX)) EUB0000595a PRKCE. The conditions noted are these: at 10 µM.

Sequence of Hepatocyte growth factor receptor (P08581 whole entry): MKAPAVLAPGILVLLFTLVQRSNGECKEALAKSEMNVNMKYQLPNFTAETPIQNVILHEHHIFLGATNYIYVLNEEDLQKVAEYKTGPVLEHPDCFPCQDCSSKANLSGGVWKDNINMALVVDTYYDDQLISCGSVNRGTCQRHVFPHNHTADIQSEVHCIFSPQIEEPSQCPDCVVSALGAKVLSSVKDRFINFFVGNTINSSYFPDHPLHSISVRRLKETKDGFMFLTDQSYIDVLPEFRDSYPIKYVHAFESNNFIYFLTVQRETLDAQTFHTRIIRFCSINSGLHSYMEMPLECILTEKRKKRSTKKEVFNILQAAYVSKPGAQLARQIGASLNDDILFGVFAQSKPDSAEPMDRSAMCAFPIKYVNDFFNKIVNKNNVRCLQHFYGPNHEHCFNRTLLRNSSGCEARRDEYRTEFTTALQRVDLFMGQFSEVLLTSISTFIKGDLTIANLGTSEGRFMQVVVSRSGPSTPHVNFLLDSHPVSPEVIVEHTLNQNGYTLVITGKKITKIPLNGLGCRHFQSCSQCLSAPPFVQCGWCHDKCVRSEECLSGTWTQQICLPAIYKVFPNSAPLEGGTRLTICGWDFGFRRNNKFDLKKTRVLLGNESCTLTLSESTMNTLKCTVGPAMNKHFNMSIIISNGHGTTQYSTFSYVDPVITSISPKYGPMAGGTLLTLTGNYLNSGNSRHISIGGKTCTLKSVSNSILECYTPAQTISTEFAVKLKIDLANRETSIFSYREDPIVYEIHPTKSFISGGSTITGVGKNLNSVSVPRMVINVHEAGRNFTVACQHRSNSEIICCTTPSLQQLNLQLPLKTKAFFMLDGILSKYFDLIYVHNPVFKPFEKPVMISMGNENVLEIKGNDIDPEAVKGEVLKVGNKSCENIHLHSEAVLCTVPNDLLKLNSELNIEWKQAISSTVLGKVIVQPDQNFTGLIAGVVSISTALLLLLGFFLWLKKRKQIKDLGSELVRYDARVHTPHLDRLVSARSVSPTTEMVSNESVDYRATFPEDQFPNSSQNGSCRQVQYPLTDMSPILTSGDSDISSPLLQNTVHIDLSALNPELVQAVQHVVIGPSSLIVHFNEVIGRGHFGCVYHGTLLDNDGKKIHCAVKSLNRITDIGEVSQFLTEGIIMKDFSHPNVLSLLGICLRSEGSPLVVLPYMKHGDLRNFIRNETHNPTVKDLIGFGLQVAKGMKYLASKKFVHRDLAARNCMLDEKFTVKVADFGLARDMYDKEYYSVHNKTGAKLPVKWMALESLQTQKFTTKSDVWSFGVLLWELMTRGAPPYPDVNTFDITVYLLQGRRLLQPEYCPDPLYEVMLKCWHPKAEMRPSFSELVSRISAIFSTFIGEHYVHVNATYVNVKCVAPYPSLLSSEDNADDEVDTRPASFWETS
Sequence of Casein kinase II subunit alpha (P68400 whole entry, looked up): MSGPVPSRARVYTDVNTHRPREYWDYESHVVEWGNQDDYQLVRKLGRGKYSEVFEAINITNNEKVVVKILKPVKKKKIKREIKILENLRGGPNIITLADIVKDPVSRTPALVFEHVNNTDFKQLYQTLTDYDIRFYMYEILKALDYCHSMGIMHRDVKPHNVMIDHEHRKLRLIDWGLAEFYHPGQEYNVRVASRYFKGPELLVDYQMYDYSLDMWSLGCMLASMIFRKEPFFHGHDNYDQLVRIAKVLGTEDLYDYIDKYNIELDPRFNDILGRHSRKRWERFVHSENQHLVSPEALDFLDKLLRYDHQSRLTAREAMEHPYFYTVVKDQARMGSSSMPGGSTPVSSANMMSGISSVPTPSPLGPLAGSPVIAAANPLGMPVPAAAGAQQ
Sequence of Serine/threonine-protein kinase B-raf (Homo sapiens) (P15056 whole entry): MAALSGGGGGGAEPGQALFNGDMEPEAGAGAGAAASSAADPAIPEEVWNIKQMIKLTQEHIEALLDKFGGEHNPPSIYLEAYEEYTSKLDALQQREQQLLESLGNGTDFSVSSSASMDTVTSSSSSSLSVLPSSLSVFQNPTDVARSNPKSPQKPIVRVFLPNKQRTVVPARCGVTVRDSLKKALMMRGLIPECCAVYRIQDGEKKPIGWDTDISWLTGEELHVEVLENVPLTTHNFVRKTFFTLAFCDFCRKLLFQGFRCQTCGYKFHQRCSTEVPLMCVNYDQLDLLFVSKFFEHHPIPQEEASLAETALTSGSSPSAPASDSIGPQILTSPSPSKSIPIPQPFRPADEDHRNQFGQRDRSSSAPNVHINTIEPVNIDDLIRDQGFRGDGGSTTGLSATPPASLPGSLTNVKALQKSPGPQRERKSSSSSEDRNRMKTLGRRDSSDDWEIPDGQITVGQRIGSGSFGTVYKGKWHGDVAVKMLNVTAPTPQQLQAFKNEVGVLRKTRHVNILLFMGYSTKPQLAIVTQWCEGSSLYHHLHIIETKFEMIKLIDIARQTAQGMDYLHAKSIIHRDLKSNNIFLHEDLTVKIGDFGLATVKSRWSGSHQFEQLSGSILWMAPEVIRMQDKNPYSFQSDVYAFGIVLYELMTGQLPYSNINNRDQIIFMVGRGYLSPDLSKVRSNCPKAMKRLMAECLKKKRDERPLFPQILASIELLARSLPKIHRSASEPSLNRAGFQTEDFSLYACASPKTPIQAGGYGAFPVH
Sequence of Tyrosine-protein kinase ABL2 (P42684 whole entry): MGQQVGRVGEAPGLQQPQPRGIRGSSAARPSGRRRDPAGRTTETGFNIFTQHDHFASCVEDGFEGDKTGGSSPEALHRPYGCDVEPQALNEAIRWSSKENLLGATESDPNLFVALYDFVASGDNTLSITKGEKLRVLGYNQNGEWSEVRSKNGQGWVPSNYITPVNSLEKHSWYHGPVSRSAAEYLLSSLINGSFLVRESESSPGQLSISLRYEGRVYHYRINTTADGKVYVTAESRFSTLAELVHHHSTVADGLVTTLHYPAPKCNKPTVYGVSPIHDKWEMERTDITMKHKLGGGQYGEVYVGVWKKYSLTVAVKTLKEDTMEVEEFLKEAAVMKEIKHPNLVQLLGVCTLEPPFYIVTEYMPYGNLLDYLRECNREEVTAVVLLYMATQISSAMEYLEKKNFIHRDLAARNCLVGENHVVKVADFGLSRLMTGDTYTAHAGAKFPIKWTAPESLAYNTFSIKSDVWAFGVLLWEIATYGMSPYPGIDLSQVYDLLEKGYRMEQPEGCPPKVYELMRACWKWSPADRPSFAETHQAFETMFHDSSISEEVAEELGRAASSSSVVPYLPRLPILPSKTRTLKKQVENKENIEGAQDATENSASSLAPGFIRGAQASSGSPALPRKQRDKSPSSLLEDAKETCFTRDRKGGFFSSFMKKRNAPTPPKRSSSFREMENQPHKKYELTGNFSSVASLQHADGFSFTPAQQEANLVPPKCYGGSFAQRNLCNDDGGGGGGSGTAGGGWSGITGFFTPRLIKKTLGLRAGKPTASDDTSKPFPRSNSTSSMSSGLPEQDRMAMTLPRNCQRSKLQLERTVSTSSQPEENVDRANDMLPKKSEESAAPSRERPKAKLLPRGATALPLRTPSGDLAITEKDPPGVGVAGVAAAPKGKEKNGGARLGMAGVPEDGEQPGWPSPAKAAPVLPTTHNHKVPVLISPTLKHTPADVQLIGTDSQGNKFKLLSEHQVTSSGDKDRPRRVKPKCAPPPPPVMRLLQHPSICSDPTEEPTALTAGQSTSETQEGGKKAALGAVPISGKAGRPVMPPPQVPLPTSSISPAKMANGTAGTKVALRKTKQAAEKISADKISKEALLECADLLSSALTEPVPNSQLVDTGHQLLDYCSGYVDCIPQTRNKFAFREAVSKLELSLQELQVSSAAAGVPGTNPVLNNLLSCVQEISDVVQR

Turning to `CC(C)(O)[C@H](F)CN1Cc2cc(NC(=O)c3cnn4cccnc34)c(N3CCOCC3)cc2C1=O`, the dTM in [1] turned out to be 0 K.
`CCc1cc(Nc2nccc(-c3c(-c4ccc(OC)c(C(=O)Nc5c(F)cccc5F)c4)nc4ccccn34)n2)c(OC)cc1N1CCC(N2CCN(S(C)(=O)=O)CC2)CC1` yielded a % of inhibition in assay [2] of 41%.
Turning to `Cc1cc(F)c(C(=O)Nc2cccc(-c3nncn3C(C)C)n2)cc1-n1cnc(C2CC2)c1`, the % of control was 39% in assay [3] and 18% in assay [4].
As usually defined, the Ki is a measure of affinity in units of concentration, obtained from inhibition or displacement. In the case of `Cc1cnc(Nc2ccc(F)cc2Cl)nc1-c1c[nH]c(C(=O)N[C@H](CO)c2cccc(Cl)c2)c1`, the Ki in [5] was above 4 µM. The compound further had a % of inhibition in assay [6] of 0%.
`O=C(NOC[C@H](O)CO)c1ccc(F)c(F)c1Nc1ccc(I)cc1F` displayed a % of control in assay [7] of 95%.
Compound `CNC(=O)Nc1ccc(-c2nc(N3CC4CCC(C3)O4)c3cnn(C4CCC5(CC4)OCCO5)c3n2)cc1` yielded a % of inhibition in assay [8] of 13%.
In [9], `COCC(=O)NC/C=C/c1ccc2ncnc(Nc3ccc(Oc4ccc(C)nc4)c(C)c3)c2c1` [CP-724714] displayed a % of control of 100%.

The record behind these values is ChEMBL document CHEMBL5465560, “Selectivity Literature for EUbOPEN Chemogenomic Library” (2024).
